From patent publication US20110212100A1, “METHODS FOR MODULATING DEVELOPMENT AND EXPANSION OF IL-17 EXPRESSING CELLS” (priority 2007, published 2011)

Experiments:
[1] = test system: TGFβ-induced Smad phosphorylation; assay: TGFβ signaling in T and B cells (Smad phosphorylation, lymphocyte responses to TGFβ); assay type: cell-based, mouse; conditions: HF 2.5-40 nM or 10 nM; SB-431542 10 μM
Experimental: T cells were then activated in the presence or absence of 3 ng/ml. TGFβ. Whole cell extracts were prepared after 1 hour of stimulation and western blot analyses were performed using the indicated antibodies.
Western blotting: Whole cell lysates were generated from T cells activated for the indicated times. For STAT3 and Smad2/3 western blots cells were harvested, washed in PBS and lysed in 50 mM Tris, pH 7.4, 0.1% SDS, 1% Triton-X100, 140 mM NaCl, 1 mM EDTA, 1 mM EGTA supplemented with protease inhibitors tablets (Roche-Germany), 1 mM NaF and 1 mM Na3VO4. For eIF2α and ATF4 western blots, cells were harvested as above and lysed in 50 mM Tris, pH 7.4, 2% SDS, 20% glycerol and 2 mM EDTA supplemented with protease and phosphatase inhibitors as above. All lysates were cleared via centrifugation and 15-30 μg of protein was resolved by SDS-PAGE. Protein was transferred to nitrocellulose membranes, blocked and blotted using specific antibodies. Antibodies used for western blot analysis were anti-phospho-Smad2, anti-STAT3 (pY705), anti-STAT3, anti-eIF2α^pS51, anti-eIF2α, anti-GCN2^pT898, anti-GCN2 (all from cell signaling technology, Danvers, Mass.). Anti-ATF4/CREB2 and anti-β-actin were purchased from Santa Cruz biotechnology (Santa Cruz, Calif.). […]

Jurkat T cells = assay: Apoptosis of Jurkat T cells (Annexin V / PI); assay type: cell-based; conditions: 100 nM HF, 30 hours
Experimental: The non-specific cytoxicity of HF in both normal and transformed T-cells at high doses was evaluated. Anti-CD3/anti-CD28 activated primary T cells were harvested 6 days after activation and cultured in the presence of IL-2 with or without HF (100 nM). As a positive control, some T cells were cultured without IL-2 to induce apoptosis (FIG. 3A). Jurkat T cells, a transformed T cell leukemia line, were cultured in complete medium with or without HF (100 nM) as indicated (FIG. 3B). Both primary and Jurkat T cells were cultured for 30 hours and programmed cell death, i.e. apoptosis, was determined by Annexin V staining and propidium iodide (PI) uptake and cells were analyzed by flow cytometry. The percent of apoptotic T cells at each time point was plotted and was defined as Annexin V^+ PI^−. […] In further experiments, titrating amounts of HF were added to primary T cells and apoptosis was determine as above at the indicated time points. At 100 nM HF, but not 30 nM or lower, generalized T-cell apoptosis was observed (FIG. 3C).

[2] = test system: CD4+ CD25− T cells activated in Th17-priming conditions; assay type: cell-based, mouse; conditions: 3 hr; 10 nM HF vs MAZ1310; mean ± SD, triplicate

Q: `O=C(CC1NCCCC1O)Cn1cnc2cc(Br)c(Cl)cc2c1=O` (racemic) [HF, 7-bromo-6-chloro-3-[3-(3-hydroxy-2-piperidinyl)-2-oxopropyl]-4(3H)-quinazolinone] was tested. Which “effect on TGFβ-induced Smad phosphorylation and other lymphocyte responses to TGFβ, in words” value [1] did it give?
A: Its value is “inhibited neither TGFβ-induced Smad phosphorylation”.

Q: What about the “apoptosis (Annexin V+ PI−) of Jurkat T cells, in words” value (Jurkat T cells) of the same molecule?
A: The value was “caused significant apoptosis”.

Q: And the “Aars transcript, fold increase HF vs. MAZ1310-3 hr” value [2]?
A: Its value is 2.7 ± 0.4 fold.

Q: What about the “Aff1 transcript, fold increase HF vs. MAZ1310-3 hr” value [2] of the same molecule?
A: Its value is 2.3 ± 0.4 fold.

Q: What about the “Aldh18a1 transcript, fold increase HF vs. MAZ1310-3 hr” value [2] of the same molecule?
A: The value was 2.1 ± 0.5 fold.

Q: What about the “Asns transcript, fold increase HF vs. MAZ1310-3 hr” value [2] of the same molecule?
A: The value was 6.1 ± 1.2 fold.

Q: What about the “Atf3 transcript, fold increase HF vs. MAZ1310-3 hr” value [2] of the same molecule?
A: The value was 3.0 ± 0.1 fold.

Q: What about the “Atf5 transcript, fold increase HF vs. MAZ1310-3 hr” value [2] of the same molecule?
A: Its value is 2.4 ± 0.1 fold.

Q: And the “Cars transcript, fold increase HF vs. MAZ1310-3 hr” value [2]?
A: The value was 2.2 ± 0.4 fold.

Q: And the “Cd274 transcript, fold increase HF vs. MAZ1310-3 hr” value [2]?
A: The value was 2.1 ± 0.2 fold.

Q: What about the “Cebpb transcript, fold increase HF vs. MAZ1310-3 hr” value [2] of the same molecule?
A: Its value is 3.9 ± 0.6 fold.

Q: What about the “Cebpg transcript, fold increase HF vs. MAZ1310-3 hr” value [2] of the same molecule?
A: The value was 2.5 ± 0.5 fold.

Q: And the “Chd2 transcript, fold increase HF vs. MAZ1310-3 hr” value [2]?
A: Its value is 2.2 ± 0.3 fold.

Q: What about the “Cldn12 transcript, fold increase HF vs. MAZ1310-3 hr” value [2] of the same molecule?
A: Its value is 3.2 ± 0.7 fold.

Q: And the “Clic4 transcript, fold increase HF vs. MAZ1310-3 hr” value [2]?
A: The value was 2.4 ± 0.2 fold.

Q: And the “Cth transcript, fold increase HF vs. MAZ1310-3 hr” value [2]?
A: The value was 2.2 ± 0.7 fold.

Q: What about the “Cxcl10 transcript, fold increase HF vs. MAZ1310-3 hr” value [2] of the same molecule?
A: Its value is 2.1 ± 0.3 fold.

Q: And the “D8Ertd56e transcript, fold increase HF vs. MAZ1310-3 hr” value [2]?
A: The value was 2.1 ± 0.3 fold.

Q: And the “Ddit3 transcript, fold increase HF vs. MAZ1310-3 hr” value [2]?
A: Its value is 5.6 ± 1.1 fold.

Q: What about the “Et4Ebp1 transcript, fold increase HF vs. MAZ1310-3 hr” value [2] of the same molecule?
A: The value was 6.8 ± 1.8 fold.

Q: And the “Gpt2 transcript, fold increase HF vs. MAZ1310-3 hr” value [2]?
A: The value was 10.0 ± 1.2 fold.

Q: And the “Herpud1 transcript, fold increase HF vs. MAZ1310-3 hr” value [2]?
A: Its value is 2.4 ± 0.3 fold.

Q: What about the “Icam1 transcript, fold increase HF vs. MAZ1310-3 hr” value [2] of the same molecule?
A: Its value is 2.0 ± 0.1 fold.

Q: What about the “Irf1 transcript, fold increase HF vs. MAZ1310-3 hr” value [2] of the same molecule?
A: Its value is 2.0 ± 0.3 fold.

Q: What about the “Lers transcript, fold increase HF vs. MAZ1310-3 hr” value [2] of the same molecule?
A: Its value is 2.3 ± 0.3 fold.

Q: What about the “Mpa2l transcript, fold increase HF vs. MAZ1310-3 hr” value [2] of the same molecule?
A: Its value is 2.3 ± 0.3 fold.

Q: What about the “Ncoa7 transcript, fold increase HF vs. MAZ1310-3 hr” value [2] of the same molecule?
A: Its value is 3.0 ± 0.3 fold.

Q: And the “Nfkbiz transcript, fold increase HF vs. MAZ1310-3 hr” value [2]?
A: The value was 2.0 ± 0.3 fold.

Q: What about the “Past1 transcript, fold increase HF vs. MAZ1310-3 hr” value [2] of the same molecule?
A: The value was 2.1 ± 0.5 fold.

Q: What about the “Pck2 transcript, fold increase HF vs. MAZ1310-3 hr” value [2] of the same molecule?
A: The value was 4.9 ± 0.8 fold.

Q: And the “Pdcd1lg2 transcript, fold increase HF vs. MAZ1310-3 hr” value [2]?
A: Its value is 3.2 ± 0.7 fold.

Q: And the “Phgdh transcript, fold increase HF vs. MAZ1310-3 hr” value [2]?
A: The value was 3.8 ± 0.9 fold.

Q: What about the “Psph transcript, fold increase HF vs. MAZ1310-3 hr” value [2] of the same molecule?
A: Its value is 3.5 ± 0.4 fold.

Q: And the “Pvr transcript, fold increase HF vs. MAZ1310-3 hr” value [2]?
A: Its value is 2.0 ± 0.3 fold.

Q: What about the “Pycr1 transcript, fold increase HF vs. MAZ1310-3 hr” value [2] of the same molecule?
A: Its value is 4.6 ± 0.7 fold.

Q: And the “Pycs transcript, fold increase HF vs. MAZ1310-3 hr” value [2]?
A: Its value is 2.1 ± 0.2 fold.

Q: What about the “Sars1 transcript, fold increase HF vs. MAZ1310-3 hr” value [2] of the same molecule?
A: Its value is 2.0 ± 0.3 fold.

Q: What about the “Sesn2 transcript, fold increase HF vs. MAZ1310-3 hr” value [2] of the same molecule?
A: The value was 2.6 ± 0.3 fold.

Q: What about the “Slamf7 transcript, fold increase HF vs. MAZ1310-3 hr” value [2] of the same molecule?
A: The value was 2.2 ± 0.4 fold.

Q: And the “Slc1a4 transcript, fold increase HF vs. MAZ1310-3 hr” value [2]?
A: Its value is 3.2 ± 0.9 fold.

Q: And the “Slc6a9 transcript, fold increase HF vs. MAZ1310-3 hr” value [2]?
A: Its value is 2.4 ± 0.3 fold.

Q: And the “Slc7a3 transcript, fold increase HF vs. MAZ1310-3 hr” value [2]?
A: The value was 2.0 ± 0.2 fold.

Q: What about the “Slc14a1 transcript, fold increase HF vs. MAZ1310-3 hr” value [2] of the same molecule?
A: Its value is 2.0 ± 0.1 fold.

Q: What about the “Trib3 transcript, fold increase HF vs. MAZ1310-3 hr” value [2] of the same molecule?
A: The value was 7.1 ± 2.0 fold.

Q: And the “Trim12 transcript, fold increase HF vs. MAZ1310-3 hr” value [2]?
A: The value was 2.4 ± 0.1 fold.

Q: And the “Vegfa transcript, fold increase HF vs. MAZ1310-3 hr” value [2]?
A: The value was 3.2 ± 0.2 fold.
